In patent publication US8779142B2, “Azabicyclo compound and salt thereof” (Taiho Pharmaceutical Co., Ltd., priority 2009, dated 2014):

Assays:
[1] = target: human HSP90 alpha protein (HSP90 N-terminal protein, amino acids 2-236) (Homo sapiens (Human), UniProt P07900); experiment: Measurement of HSP90-binding activity (AlphaScreen competitive assay, biotin-labeled geldanamycin); conditions: concentration inhibiting binding of biotin-labeled geldanamycin (40 nM) to purified HSP90 to 50% of control; read-out: HSP-binding activity IC50
SK-BR-3 cells = experiment: Measurement of cell growth inhibition (crystal violet staining method); type: cell-based; conditions: Homo sapiens; breast cancer SK-BR-3 cells, 72 hr culture with test substance

SMILES | IC50 [1] | IC50 (SK-BR-3 cells)
CC(C)c1nn(-c2ccc(C(N)=O)c(NCC(F)(F)F)c2)c2nccc(-n3cnc(-c4cnn(C)c4)c3)c12 [Example 114, 4-{3-Isopropyl-4-(4-(1-methyl-1H-pyrazol-4-yl)-1H-imidazol-1-yl)-1H-pyrazolo[3,4-b]pyridin-1-yl}-2-(2,2,2-trifluoroethylamino)benzamide] | 490 nM | 180 nM
CC(C)c1nn(-c2ccc(C(N)=O)c(NC3CCC(O)CC3)c2)c2nccc(-n3cnc(-n4ccnc4)c3)c12 (stereo not shown) [Example 92, 4-{4-(1′H-1,4′-Biimidazol-1′-yl)-3-isopropyl-1H-pyrazolo[3,4-b]pyridin-1-yl}-2-(4-hydroxycyclohexylamino)benzamide] | 130 nM | 70 nM
CC(C)Nc1cc(-n2nc(C(C)C)c3c(-n4cnc(-c5cnn(C)c5)c4)ccnc32)ccc1C(N)=O [Example 111, 4-{3-Isopropyl-4-(4-(1-methyl-1H-pyrazol-4-yl)-1H-imidazol-1-yl)-1H-pyrazolo[3,4-b]pyridin-1-yl}-2-(isopropylamino)benzamide] | 190 nM | 80 nM
CCNc1cc(-n2nc(C(C)C)c3c(-n4cnc(-c5cnn(CC)c5)c4)ccnc32)ccc1C(N)=O [Example 146, 4-{4-(4-(1-Ethyl-1H-pyrazol-4-yl)-1H-imidazol-1-yl)-3-isopropyl-1H-pyrazolo[3,4-b]pyridin-1-yl}-2-(ethylamino)benzamide] | 770 nM | 210 nM
CN(C)c1cc(C(N)=O)ccc1-n1nc(C(F)(F)F)c2c(-n3cnc(-c4cnn(C)c4)c3)ccnc21 [Example 159, 3-(Dimethylamino)-4-{4-(4-(1-methyl-1H-pyrazol-4-yl)-1H-imidazol-1-yl)-3-(trifluoromethyl)-1H-pyrazolo[3,4-b]pyridin-1-yl}benzamide] | 210 nM | 290 nM
